Three substances from patent US7741274B2, “Casein derived peptides and uses thereof in therapy” (priority 2000, dated 2010) can be followed below.

The test system of one assay is HIV-1IIIB. In words: Inhibition of HIV-1 infection of CEM lymphocytes (cell counts, P24 antigen assay). It counts as cell-based. Particulars: for cell counts: infected control 1.06×10^6; for HIV-1 infection level, P24 antigen: 7 days post infection, control 0.52. As for the experimental part:
Inhibition of in vitro HIV infection of human lymphocyte cells:
Peptides: Peptides (either peptides derived from natural casein or synthetic peptides derived from casein (1-25 amino acids in length, see table 3) supplied as lyophilized powder were resuspended in RPMI complete medium and added to cell cultures at a final concentrations of 50 to 1000 μg per ml.
Cells: Several types of freshly isolated human cells (primary cells) and cell lines are known to be susceptible to in vitro HIV-1 infection, although essentially any cell displaying even low surface levels of the CD4 molecule can be considered a potential target for HIV-1 infection. Two commonly used human cell lines which are highly sensitive for HIV-1 infection were chosen, CEM and Sup-T1.
CEM is a human T4-lymphoblastoid cell line initially derived by G. E. Foley et al. [(1965), Cancer 18:522] from peripheral blood buffy coat of a person with acute lymphoblastic leukemia. These cells were continuously maintained in suspension in medium, and have been used widely for analysis of infectivity, antiviral agents and neutralizing antibodies.
Virus: The HIV virus strain employed was HIV-1IIIB, originally designated HTLV-IIIB. Concentrated culture fluids of peripheral blood from several patients with AIDS or related diseases were used to establish a permanent productive infection in H-9 cells. This subtype B virus has high capacity to replicate in human T-cell lines. Viral titer was 5.38 ng per ml in stock solution.
HIV-1 P24 antigen capture assay: An HIV-1 P24 Antigen capture assay kit employed was designed to quantitate the HIV-1 P24 core antigen, which is proportionally related to the degree of viral production in cells. This kit was purchased from the AIDS Vaccine program of the SAIC-NCI-Frederick Cancer Research Institute, P.O. Box B, Frederick, Md. 21702, USA and included 96 well plates coated with monoclonal antibody to HIV-1 P24, primary antibody-rabbit anti-HIV P24 serum, secondary antibody-Goat anti-rabbit-IgG (H+ L) peroxidase conjugated antibody, TMB peroxidase substrate system and lysed HIV-1 P24 standard. The HIV-1 P24 antigen capture assay was analyzed by Organon-Technica ELISA reader at 450 nm with a reference at 650 nm.
HIV-1 P24 antigen capture ELISA: HIV infection was measured with an indirect enzyme immunoassay which detects HIV-1 P24 core antigens in tissue culture media. Tissue culture supernatant was reacted with primary rabbit anti-HIV-1 P24 antigen and visualized by peroxidase conjugated goat anti rabbit IgG. The reaction was terminated by adding 4N H2SO4, wherein the intensity of the color developed is proportional to the amount of HIV-1 antigen present in the tissue culture supernatant.
HIV infection of human cultured CD4+ cells: The cells (CEM, Sup-T1) were preincubated with several increasing concentrations of peptides derived from natural casein (50-1000 μg per ml) or synthetic peptides derived from casein (10-500 μg per ml) for 3, 24 (for synthetic and natural peptides) and 48 (only for natural peptides) hours and HIV-1IIIB (45 μg per ml final concentration) was added to each well thereafter. HIV-1IIIB was preincubated with the peptides for 3 hours and then added to cells (5000 cells/well) in tissue culture plates. Controls were IF (Infected, cells cultured with HIV-1 and without peptides), UIF (Uninfected, cells cultured without HIV-1 and without peptides) and UIF+Ch (Uninfected+peptides derived from natural casein, cells cultured in the presence of peptides derived from natural casein {50-1000 μg per ml}) to test the effect of peptides derived from natural casein and synthetic peptides derived from casein on cell viability and growth. Cells were counted for viability and proliferation rate on day 7, 10 and day 14 post infection (the day of P24 antigen culture supernatant harvest). Cells and tissue culture supernatants (media) were harvested and lysed immediately in 1/10 volume of 10% Triton X-100. […]

Assay [1] deals with female C57B1/6j mice fed an atherogenic diet. In words: Diet-induced hypercholesterol/hyperlipidemia in C57B1/6j mice. Particulars: one week post 1 mg per mouse i.p.; diet control 52. It counts as in vivo. Here is the method:
The ability of synthetic casein derived peptides to reduce cholesterol levels in 7-week old female C57B1/6j mice was assessed after feeding an atherogenic diet. The mice were divided into groups of 8. One control group was fed a normal diet. A second control group was fed the modified Thomas Hartroft diet containing cholate (#TD 88051: Teklad, Madison, Wis.) [Gerber, D. W. et al. (2000), Journal of Lipid Research. 42, 2001]. The remaining experimental groups were all fed the modified Thomas Hartroft diet.
Cholesterol blood levels were determined according to Roche Cholesterol Assay based on Roeschlou & Allin enzymatic method (Roche, Inc., Germany).

Assay [2] relates to murine primary bone marrow cells. In words: Multipotential colonies (CFU-GEMM) from murine bone marrow cells, colony and differential counts. The class given is cell-based, mouse. As to conditions: 8 days treatment. As for the experimental part:
Stimulation of Hematopoiesis from Bone Marrow (BM) Cells in Culture:
Proliferation of megakaryocytes in multipotential colonies (CFU-GEMM) from murine Bone Marrow cells: Primary bone marrow cells (1×10^5 per ml) from 8-12 week-old C3H/HeJ mice were grown in serum-free methyl cellulose-IMDM medium for 8-9 days at 5% CO2, 95% air, at 37° C. The medium, appropriate for the growth of multipotential colonies (CFU-GEMM), contained 1% BSA (Sigma), 10^−4 M thioglycerol (Sigma), 2.8×10^−4 M human transferrin (TF, Biological industries, Israel), 10% WEHI-CM as a source of IL-3 and 2 units per ml erythropoietin (rhEPO, R & D Systems, Minneapolis). Colonies were scored after 8-9 days using an Olympus dark field microscope. They were picked with a micropipette, cytocentrifuged and stained with May-Grunwald-Giemsa for differential counts. At least 700 cells were counted for each preparation. […]
Proliferation of Macrophage cells in CFU-GEMM: Multipotent (CFU-GEMM colonies grown from primary bone marrow cells as described for the assay of megakaryocyte proliferation above were collected, stained and counted for macrophage cells. At least 700 cells were counted for each preparation.
Proliferation of Red Blood Cells in CFU-GEMM: Multipotent (CFU-GEMM) colonies grown from primary bone marrow cells as described for the assay of megakaryocyte proliferation above were collected, stained and counted for red blood cells. At least 700 cells were counted for each preparation. […]

The test system of a further assay is human bone marrow cells. In words: Colony assays of human bone marrow cells (CFU-GM, erythroid, megakaryocyte, CFU-GEMM). Particulars: TPO-treated cells without peptides. It counts as cell-based.
In assay [3] the test system is Non-Obese Diabetic (NOD) mice. Nature of the assay: Prevention of glucosuria / Juvenile (Type I, IDDM) Diabetes in NOD mice. It counts as in vivo, mouse. As to conditions: 100 μg once weekly for 5 weeks, evaluated after 25 weeks. Here is the method: Juvenile (Type I, IDDM) Diabetes in Non-Obese Diabetic (NOD) Mice:
Peptides Derived from Natural Casein:
NOD mice are a commonly used model for research of autoimmune disease and human Juvenile Diabetes. Six week old female NOD mice received either one or two injections per week of 100 μg of peptides derived from natural casein, for a total of 5 or 11 treatments. Control mice received no treatment. The severity of disease was determined according to glucosuria, which was measured using Combi test sticks [Gross, D. J. et al. (1994), Diabetology, 37:1195]. Results were expressed as the percent of glucosuria-free mice in each sample over a 365-day period.
Synthetic Peptides Derived from Casein:
In another experiment, 6 week old female NOD mice received one injection per week of 100 μg of Synthetic peptides derived from casein for a total of 5 treatments. Control mice received no treatment. Results were expressed as the number of healthy mice in the various treated groups.

In assay [4] the test system is Non-Obese Diabetic (NOD) mice. In words: Intraperitoneal Glucose Tolerance Test (IPGTT) in NOD mice. Set-up: IPGT TEST 0 min. (pre-load), plasma glucose: unit not given here. The class given is in vivo, mouse. Here is the method: Intraperitoneal Glucose Tolerance Test (IPGTT):
The glucose tolerance test is the definitive method for investigating glucose metabolism and diabetic tendencies in mammals. Twenty five (25) weeks after receiving Synthetic peptides derived from casein, response to a glucose load was assessed with an intraperitoneal glucose tolerance test. Glucose injection consisted of 1 g/kg body weight. Glycemic values were determined from blood drawn prior to test (0 minutes) and 60 minutes after loading.

Description for human bone marrow cells: Proliferation of megakaryocyte- and erythroid forming cells from human bone marrow and cord blood cells: A sample of bone marrow from an apparently healthy human being was processed by density gradient separation using Histopaque-107 (Sigma Diagnostics) to obtain a purified population of mononuclear cells (MNC). […]
Colony assay medium containing 10^5 MNC per ml was plated in triplicate wells within a 24 well tissue culture plate (Greiner), 0.33 ml per well. […] Plates were scored after 14 days for colonies containing more than 50 cells. […]
Megakaryocytopoiesis was measured in normal bone marrow cells from healthy consenting human donors by either scoring of the number of megakaryocytes in samples of liquid culture (RPMI-1640 plus 10% human AB serum, glutamine and antibiotics) with or without 100 μg per ml peptides derived from natural casein, or in a methylcellulose assay for assessing colony formation. […] In the methylcellulose assay megakaryocytes were counted with an inverted microscope on days 12-14 after seeding.

As to RPKHP [3P], the cell counts in the assay on HIV-1IIIB (10 μg per ml, 3 hours pretreatment) is 1.17 ×10^6; with HIV-1IIIB (25 μg per ml, 3 hours pretreatment), 1.26 ×10^6. The “HIV-1 infection level, P24 antigen” value in the assay on HIV-1IIIB (10 μg per ml) was determined as 0.26 ng P24 Ag per ml; in the assay with HIV-1IIIB (25 μg per ml), 0.18 ng P24 Ag per ml. Further, the “resistance of CEM cells to HIV-1 infection (in words)” value in the assay with HIV-1IIIB (3 hours pretreatment) is given as “significant inhibition of HIV-1 infection”. In assay [1], this substance registered an HDL of 41 mg/dL. In addition, in assay [2], the “megakaryocyte formation and development” value is “significant increase”.

On to “TPO: thrombopoietin, hematopoietic growth factor that stimulates megakaryocyte colony formation”, for which, in the assay on human bone marrow cells, the “megakaryocyte (MK) colonies” value was 16 colonies per 2×10^5 cells.

With RPKHPIKHQGL [2a], in assay [3], the “prevention of glucosuria (in words)” value is “highly effective”. For the same substance, the “Healthy/Total* (healthy and well = sugar not detected in urine)” value in assay [3] (female NOD mice) is 4/5. In assay [1], this substance registered an HDL of 40 mg/dL. The “IPGT test result (in words)” value in assay [4] (healthy NOD mice after 25 weeks) is reported as “The other two mice remained within normal glycemic range”. In addition, in assay [4] (individual healthy NOD mice, 25 weeks after peptides), the “IPGT TEST 0 min. (pre-load), plasma glucose” value is on record as 95. The “megakaryocyte formation and development” value in assay [2] was “significant increase”.
